Structures can show the parent of a compound that is named as a salt. Where two headings read alike, the source gives them in different places.
Test system: mice
Assay: Neuropharmacological Assay (SmartCube): automated behavioral signature of compound-treated mice compared with a database of reference drug classes
Assay type: in vivo
Details: for minimal effective dose: Mus musculus, ip; for minimal effective dose / MED / MED (minimal effective dose): i.p., that dose is shown
Text: Neurosci. 2011 Sep. 9; 5: 103 (doi: 10.3389/fnins.2011.00103) (“Roberds”). As reported in Roberds, because psychiatric diseases generally result from disorders of cell-cell communication or circuitry, intact systems are useful in detecting improvement in disease-relevant endpoints. These endpoints are typically behavioral in nature, often requiring human observation and interpretation. To facilitate testing of multiple compounds for behavioral effects relevant to psychiatric disease, PsychoGenics, Inc. (Tarrytown, NY, “PGI”) developed SmartCube™ an automated system in which behaviors of compound-treated mice are captured by digital video and analyzed with computer algorithms. (D. Brunner et al. Drug Discov. Today 2002, 7:S107-S112). PGI Analytical Systems uses data from SmartCube™ to compare the behavioral signature of a test compound to a database of behavioral signatures obtained using a large set of diverse reference compounds. (The composition of the database as well as validation of the method is further described in Roberds). In this way, the neuropharmacological effects of a test compound can be predicted by similarity to major classes of compounds, such as antipsychotics, anxiolytics and antidepressants.
The SmartCube™ system produces an activity signature indicating the probability that the activity of the test compound at the administered dose matches a given class of neuropharmacological agents. (See, e.g., Roberds, FIGS. 2 and 3). The test compound is simultaneously compared against multiple classes of agents; thus, a separate probability is generated for each behavioral effect measured (e.g., anxiolytic activity, analgesic activity, etc.). In table 2 below, these probabilities are reported for each behavioral effect measured as described in Table 1 below.
Provided compounds were dissolved in a mixture of Pharmasolve™ (N-methyl-2-pyrrolidone), polyethylene glycol and propylene glycol, and were injected i.p. 15 min. before the behavioral test. For each compound, injections were administered at 3 different doses. For each behavioral effect measured, results for the 3.0 mg/kg dose are presented. The potency of many of the compounds in the table was also determined in the SmartCube™ system. Test compounds were routinely examined at dose levels of 0.3, 1, 3 and 10 mg per kg (mpk), although the dose range was increased or decreased, if necessary, to obtain a full dose response curve. A compound's minimal effective dose (MED) is a measure of the compound's potency. The MED was defined as the dose (in mpk) having 45% or more total activity in SmartCube. If only one dose was tested, that dose is shown in the MED column of Table 2 even though the dose is not known to be the MED.

[1] = dose having 45% or more total activity in SmartCube, if only one dose was tested, read-out: MED (minimal effective dose)
[2] = probability that activity matches this class of agents, 3.0 mg/kg i.p., 15 min before test
[3] = SmartCube class probability, 3.0 mg/kg i.p., 15 min before test
[4] = minimal effective dose: dose having 45% or more total activity in SmartCube, if only one dose tested, read-out: MED
[5] = SmartCube class probability, 3.0 mg/kg i.p., 15 min before test, hydrochloride, 3 mg/kg
[6] = probability that activity matches this class of agents, 3.0 mg/kg i.p., 15 min before test, hydrochloride, 3 mg/kg
[7] = dose having 45% or more total activity in SmartCube, if only one dose was tested, hydrochloride
[8] = SmartCube probability class, 3.0 mg/kg dose, i.p. 15 min before the behavioral test

| Compound | AD [2] | AG [2] | AN [2] | HL [2] | MS [2] | PS [2] | SH [2] | UK [2] | AD [3] | AG [3] | AN [3] | AP [3] | AX [3] | CE [3] | HL [3] | MS [3] | PS [3] | SH [3] | UK [3] | minimal effective dose [4] [mg/kg] | further results |
| --- | --- | --- | --- | --- | --- | --- | --- | --- | --- | --- | --- | --- | --- | --- | --- | --- | --- | --- | --- | --- | --- |
| CN(C)C1(C)CCc2cscc2C1 (single isomer, unassigned) [Compound 121, N,N, 5-trimethyl-6,7-dihydro-4H-2-benzothiophen-5-amine hydrochloride] | ND (^ <4%) | ND (^ <4%) | ND (^ <4%) | ND (^ <4%) | ND (^ <4%) | ND (^ <4%) | ND (^ <4%) | +++ (≥49%) | – | – | – | – | – | – | – | – | – | – | – | – | minimal effective dose [1]: 3 mg/kg; AP [2]: + (≥4%); AX [2]: + (≥4%); CE [2]: ND (^ <4%) |
| CNC1CCc2sc(C3CC3)cc2C1 (single isomer, unassigned) [Compound 184, 2-cyclopropyl-N-methyl-4,5,6,7-tetrahydrobenzothiophen-5-amine hydrochloride] | – | – | – | – | – | – | – | – | ND (^ <4%) | ND (^ <4%) | ND (^ <4%) | ND (^ <4%) | ND (^ <4%) | ND (^ <4%) | ND (^ <4%) | ND (^ <4%) | ND (^ <4%) | ND (^ <4%) | ++ (≥24%) | – | MED (minimal effective dose: dose having 45% or more total activity in SmartCube, if only one dose tested, hydrochloride): >3 mpk |
| CNC1COc2c(C)csc2C1 (stereo not drawn) [Compound 247, N, 3-dimethyl-6,7-dihydro-5H-thieno[3,2-b]pyran-6-amine hydrochloride] | – | – | – | – | – | – | – | – | ND (^ <4%) | ND (^ <4%) | ND (^ <4%) | ++++ (≥74%) | ND (^ <4%) | ND (^ <4%) | ND (^ <4%) | ND (^ <4%) | ND (^ <4%) | ND (^ <4%) | ND (^ <4%) | 3 | – |
| NC1CCc2sc(Cl)cc2C1 (stereo not drawn) [Compound 216, 2-chloro-4,5,6,7-tetrahydrobenzothiophen-5-amine hydrochloride] | – | – | – | – | – | – | – | – | ND (^ <4%) | ND (^ <4%) | ND (^ <4%) | ND (^ <4%) | ++ (≥24%) | ND (^ <4%) | ND (^ <4%) | ND (^ <4%) | ND (^ <4%) | ND (^ <4%) | + (≥4%) | > 3 | – |
| CNC1COc2sccc2C1 (stereo not drawn) [Compound 234, N-methyl-3,4-dihydro-2H-thieno[2,3-b]pyran-3-amine hydrochloride] | – | – | – | – | – | – | – | – | ND (^ <4%) | ND (^ <4%) | ND (^ <4%) | ++++ (≥74%) | + (≥4%) | ND (^ <4%) | ND (^ <4%) | ND (^ <4%) | ND (^ <4%) | ND (^ <4%) | ND (^ <4%) | 1 | – |
| NC1CCc2scc(Cl)c2C1 (stereo not drawn) [Compound 187, 3-chloro-4,5,6,7-tetrahydrobenzothiophen-5-amine hydrochloride] | – | – | – | – | – | – | – | – | ND (^ <4%) | ND (^ <4%) | ND (^ <4%) | ++ (≥24%) | ND (^ <4%) | ND (^ <4%) | ND (^ <4%) | ND (^ <4%) | ND (^ <4%) | ND (^ <4%) | ++ (≥24%) | 3 | – |
| NC1CCc2cscc2C1 (single isomer, unassigned) [Compound 166, 4,5,6,7-tetrahydro-2-benzothiophen-5-amine hydrochloride] | – | – | – | – | – | – | – | – | – | ND (^ <4%) | ND (^ <4%) | – | +++ (≥49%) | ND (^ <4%) | ND (^ <4%) | ND (^ <4%) | – | ND (^ <4%) | ND (^ <4%) | 1 | AD [5]: + (≥4%); AP [5]: ++ (≥24%); PS [5]: ND (^ <4%) |
| CNC1Cc2cscc2C1.Cl [Compound 21, N-methyl-5,6-dihydro-4H-cyclopenta[c]thiophen-5-amine hydrochloride] | ND (^ <4%) | ND (^ <4%) | ND (^ <4%) | ND (^ <4%) | ND (^ <4%) | ND (^ <4%) | ND (^ <4%) | +++ (≥49%) | – | – | – | – | – | – | – | – | – | – | – | – | minimal effective dose [1]: 3 mg/kg; AP [2]: ND (^ <4%); AX [2]: ND (^ <4%); CE [2]: ND (^ <4%) |
| CCc1scc2c1CC(NC)CC2 (single isomer, unassigned) [Compound 115, 3-ethyl-N-methyl-4,5,6,7-tetrahydro-2-benzothiophen-5-amine hydrochloride] | ND (^ <4%) | ND (^ <4%) | ND (^ <4%) | ND (^ <4%) | ND (^ <4%) | ND (^ <4%) | ND (^ <4%) | ND (^ <4%) | – | – | – | – | – | – | – | – | – | – | – | – | minimal effective dose [1]: 3 mg/kg; AX [2]: ND (^ <4%); CE [2]: ND (^ <4%); AP [6]: ++++ (≥74%) |
| NC1CCc2scc(C(F)(F)F)c2C1 (single isomer, unassigned) [Compound 254, 3-(trifluoromethyl)-4,5,6,7-tetrahydrobenzothiophen-5-amine hydrochloride] | – | – | – | – | – | – | – | – | ND (^ <4%) | ND (^ <4%) | ND (^ <4%) | ND (^ <4%) | ND (^ <4%) | ND (^ <4%) | ND (^ <4%) | ND (^ <4%) | ND (^ <4%) | ND (^ <4%) | – | > 3 | UK [5]: + (≥4%) |
| CNC1(C)CCc2ccsc2C1 (single isomer, unassigned) [Compound 50, N, 6-dimethyl-5,7-dihydro-4H-benzothiophen-6-amine hydrochloride] | – | ND (^ <4%) | ND (^ <4%) | ND (^ <4%) | – | ND (^ <4%) | ND (^ <4%) | ND (^ <4%) | – | – | – | – | – | – | – | – | – | – | – | – | MED (minimal effective dose) [7]: 3.0 mpk; AP [2]: ND (^ <4%); AD [6]: +++ (≥49%); AX [6]: ND (^ <4%); CE [6]: ND (^ <4%); MS [6]: ND (^ <4%) |
| CC1(N2CCCC2)CCc2sccc2C1.Cl (single isomer, unassigned) [Compound 284, 1-(5-methyl-4,5,6,7-tetrahydrobenzo[b]thiophen-5-yl)pyrrolidine hydrochloride] | – | – | – | – | – | – | – | – | – | – | – | – | – | – | – | – | – | – | – | – | AD [8]: ND (^ <4%); AG [8]: ND (^ <4%); AN [8]: ND (^ <4%); AP [8]: ND (^ <4%); AX [8]: ND (^ <4%); CE [8]: ND (^ <4%); HL [8]: ND (^ <4%); MS [8]: ND (^ <4%); PS [8]: ND (^ <4%); SH [8]: ND (^ <4%); UK (SmartCube probability class, 3.0 mg/kg dose, i.p. 15 min before the behavioral test, hydrochloride, 3 mg/kg): ++ (≥24%); MED (minimal effective dose: dose having 45% or more total activity in SmartCube, if only one dose was tested): 3 mpk |
| CN(C)C1CCc2ccsc2C1.Cl (single isomer, unassigned) [Compound 15, N,N-dimethyl-4,5,6,7-tetrahydrobenzothiophen-6-amine hydrochloride] | ND (^ <4%) | ND (^ <4%) | ND (^ <4%) | ND (^ <4%) | ND (^ <4%) | ND (^ <4%) | ND (^ <4%) | ND (^ <4%) | – | – | – | – | – | – | – | – | – | – | – | – | MED (minimal effective dose) [7]: 0.3 mpk; AP [6]: + (≥4%); AX [6]: +++ (≥49%); CE [6]: ++ (≥24%) |
